# Laboratory results taken from patent US9908895B2, “Tricyclic fused thiophene derivatives as JAK inhibitors” (Incyte Corporation, priority 2012, dated 2018).
# Test system: human JAK1
# Assay: In vitro JAK kinase assay (HTRF), JAK1
# Assay type: biochemical
# Settings: ratio of JAK2 IC50 to JAK1 IC50 at 1 mM ATP
# Protocol: Compounds herein were tested for inhibitory activity of JAK targets according to the following in vitro assay described in Park et al., Analytical Biochemistry 1999, 269, 94-104. The catalytic domains of human JAK1 (a.a. 837-1142), JAK2 (a.a. 828-1132) and JAK3 (a.a. 781-1124) were expressed using baculovirus in insect cells and purified. The catalytic activity of JAK1, JAK2 or JAK3 was assayed by measuring the phosphorylation of a biotinylated peptide. The phosphorylated peptide was detected by homogenous time resolved fluorescence (HTRF). IC50s of compounds were measured for each kinase in the 40 μL reactions that contain the enzyme, ATP and 500 nM peptide in 50 mM Tris (pH 7.8) buffer with 100 mM NaCl, 5 mM DTT, and 0.1 mg/mL (0.01%) BSA. For the 1 mM IC50 measurements, ATP concentration in the reactions was 1 mM. Reactions were carried out at room temperature for 1 hour and then stopped with 20 μL 45 mM EDTA, 300 nM SA-APC, 6 nM Eu-Py20 in assay buffer (Perkin Elmer, Boston, Mass.). Binding to the Europium labeled antibody took place for 40 minutes and HTRF signal was measured on a PHERA star plate reader (BMG, Cary, N.C.). The Example compounds were each tested in the Example A assay (see Table 1 for data for the compounds of the examples as tested by the assay of Example A at 1 mM ATP).
row,SMILES,JAK2/JAK1
1,C[C@@H](O)c1nc2cnc3ccsc3c2n1[C@H]1CCCN(C(=O)CCc2ccccc2)C1 [Example 57],>10
2,"C[C@@H](O)c1nc2cnc3ccsc3c2n1[C@H]1CCCN(C(=O)CCC#N)C1 [Example 58, 4-((3S)-3-{2-[(1R)-1-Hydroxyethyl]-1H-imidazo[4,5-d]thieno[3,2-b]pyridin-1-yl}piperidin-1-yl)-4-oxobutanenitrile]",>10
3,"C[C@@H](O)c1nc2cnc3ccsc3c2n1[C@H]1CCCN(C(=O)CCCC#N)C1 [Example 59, 5-((3S)-3-{2-[(1R)-1-Hydroxyethyl]-1H-imidazo[4,5-d]thieno[3,2-b]pyridin-1-yl}piperidin-1-yl)-5-oxopentanenitrile]",>10
4,"C[C@@H](O)c1nc2cnc3ccsc3c2n1C1CCN(CCCC(F)(F)F)CC1 [Example 60, (1R)-1-{1-[1-(4,4,4-Trifluorobutyl)piperidin-4-yl]-1H-imidazo[4,5-d]thieno[3,2-b]pyridin-2-yl}ethanol]",>10
5,"C[C@@H](O)c1nc2cnc3ccsc3c2n1C1CCN(CC#N)CC1.O=C(O)C(F)(F)F [Example 61, (4-{2-[(1R)-1-Hydroxyethyl]-1H-imidazo[4,5-d]thieno[3,2-b]pyridin-1-yl}piperidin-1-yl)acetonitrile trifluoroacetate]",>10
6,"C[C@@H](O)c1nc2cnc3ccsc3c2n1[C@H]1CCN(CCC#N)C1 [Example 62, 3-((3S)-3-{2-[(1R)-1-Hydroxyethyl]-1H-imidazo[4,5-d]thieno[3,2-b]pyridin-1-yl}pyrrolidin-1-yl)propanenitrile]",>10
7,"C[C@@H](O)c1nc2cnc3ccsc3c2n1[C@H]1CCN(C(=O)CC#N)C1 [Example 63, 3-((3S)-3-{2-[(1R)-1-Hydroxyethyl]-1H-imidazo[4,5-d]thieno[3,2-b]pyridin-1-yl}pyrrolidin-1-yl)-3-oxopropanenitrile]",>6
8,"C[C@@H](O)c1nc2cnc3ccsc3c2n1[C@H]1CCN(CCCC(F)(F)F)C1 [Example 64, (1R)-1-{1-[(3S)-1-(4,4,4-Trifluorobutyl)pyrrolidin-3-yl]-1H-imidazo[4,5-d]thieno[3,2-b]pyridin-2-yl}ethanol]",>10
9,"C[C@@H](O)c1nc2cnc3ccsc3c2n1[C@H]1CCN(CCCC#N)C1 [Example 65, 4-((3S)-3-{2-[(1R)-1-Hydroxyethyl]-1H-imidazo[4,5-d]thieno[3,2-b]pyridin-1-yl}pyrrolidin-1-yl)butanenitrile]",>10
10,"C[C@@H](O)c1nc2cnc3ccsc3c2n1[C@H]1CCN(CCCCC#N)C1 [Example 66, 5-((3S)-3-{2-[(1R)-1-Hydroxyethyl]-1H-imidazo[4,5-d]thieno[3,2-b]pyridin-1-yl}pyrrolidin-1-yl)pentanenitrile]",>10
11,"C[C@@H](O)c1nc2cnc3ccsc3c2n1[C@H]1CC[C@H](CC#N)[C@H](N)C1 [Example 67, ((1R,2R,4S)-2-Amino-4-{2-[(1R)-1-hydroxyethyl]-1H-imidazo[4,5-d]thieno[3,2-b]pyridin-1-yl}cyclohexyl)acetonitrile]",>10
12,"CC(N)c1nc2cnc3ccsc3c2n1[C@H]1CC[C@H](CC#N)OC1.O=C(O)C(F)(F)F (stereo partly drawn) [Example 68, {(2R,5S)-5-[2-(1-Aminoethyl)-1H-imidazo[4,5-d]thieno[3,2-b]pyridin-1-yl]tetrahydro-2H-pyran-2-yl}acetonitrile trifluoroacetate]",>10
13,"CC(=O)NC(C)c1nc2cnc3ccsc3c2n1[C@H]1CC[C@H](CC#N)OC1 (stereo partly drawn) [Example 69, N-(1-{1-[(3S,6R)-6-(Cyanomethyl)tetrahydro-2H-pyran-3-yl]-1H-imidazo[4,5-d]thieno[3,2-b]pyridin-2-yl}ethyl)acetamide]",>10
14,"CNC(C)c1nc2cnc3ccsc3c2n1[C@H]1CC[C@H](CC#N)OC1 (stereo partly drawn) [Example 70, ((2R,5S)-5-{2-[1-(Methylamino)ethyl]-1H-imidazo[4,5-d]thieno[3,2-b]pyridin-1-yl}tetrahydro-2H-pyran-2-yl)acetonitrile]",>10
15,"CC(F)c1nc2cnc3ccsc3c2n1[C@H]1CC[C@H](CC#N)OC1 (stereo partly drawn) [Example 71, {(2R,5S)-5-[2-(1-Fluoroethyl)-1H-imidazo[4,5-d]thieno[3,2-b]pyridin-1-yl]tetrahydro-2H-pyran-2-yl}acetonitrile]",>10
16,"N#CCc1nc2cnc3ccsc3c2n1[C@H]1CC[C@H](CC#N)OC1 [Example 73, {(2R,5S)-5-[2-(Cyanomethyl)-1H-imidazo[4,5-d]thieno[3,2-b]pyridin-1-yl]tetrahydro-2H-pyran-2-yl}acetonitrile]",>10
17,"N#CCc1nc2cnc3ccsc3c2n1[C@H]1CC[C@@H](CC#N)OC1 [Example 74, {(2S,5S)-5-[2-(Cyanomethyl)-1H-imidazo[4,5-d]thieno[3,2-b]pyridin-1-yl]tetrahydro-2H-pyran-2-yl}acetonitrile]",>10
18,"C[C@@H](O)c1nc2cnc3ccsc3c2n1[C@H]1CC[C@H](CNS(C)(=O)=O)OC1 [Example 75, N-[((2R,5S)-5-{2-[(1R)-1-Hydroxyethyl]-1H-imidazo[4,5-d]thieno[3,2-b]pyridin-1-yl}tetrahydro-2H-pyran-2-yl)methyl]methanesulfonamide]",>10
19,"CC(C)OC(=O)NC[C@H]1CC[C@H](n2c([C@@H](C)O)nc3cnc4ccsc4c32)CO1 [Example 76, Isopropyl [((2R,5S)-5-{2-[(1R)-1-hydroxyethyl]-1H-imidazo[4,5-d]thieno[3,2-b]pyridin-1-yl}tetrahydro-2H-pyran-2-yl)methyl]carbamate]",>10
20,"COC(=O)NC[C@H]1CC[C@H](n2c([C@@H](C)O)nc3cnc4ccsc4c32)CC1 [Example 78, Methyl [(trans-4-{2-[(1R)-1-hydroxyethyl]-1H-imidazo[4,5-d]thieno[3,2-b]pyridin-1-yl}cyclohexyl)methyl]carbamate]",>10
21,"CC(=O)NC[C@H]1CC[C@H](n2c([C@@H](C)O)nc3cnc4ccsc4c32)CC1 [Example 79, N-[(trans-4-{2-[(1R)-1-Hydroxyethyl]-1H-imidazo[4,5-d]thieno[3,2-b]pyridin-1-yl}cyclohexyl)methyl]acetamide]",>10
22,"C[C@@H](O)c1nc2cnc3ccsc3c2n1[C@H]1CC[C@H](CNS(C)(=O)=O)CC1 [Example 80, N-[(trans-4-{2-[(1R)-1-Hydroxyethyl]-1H-imidazo[4,5-d]thieno[3,2-b]pyridin-1-yl}cyclohexyl)methyl]methanesulfonamide]",>10
23,"C[C@@H](O)c1nc2cnc3ccsc3c2n1[C@H]1CC[C@H](CNC(=O)N(C)C)CC1 [Example 81, N′-[(trans-4-{2-[(1R)-1-Hydroxyethyl]-1H-imidazo[4,5-d]thieno[3,2-b]pyridin-1-yl}cyclohexyl)methyl]-N,N-dimethylurea]",>10
24,"CCOC(=O)NC[C@H]1CC[C@H](n2c([C@@H](C)O)nc3cnc4ccsc4c32)CC1 [Example 82, Ethyl [(trans-4-{2-[(1R)-1-hydroxyethyl]-1H-imidazo[4,5-d]thieno[3,2-b]pyridin-1-yl}cyclohexyl)methyl]carbamate]",>10
25,"CCCOC(=O)NC[C@H]1CC[C@H](n2c([C@@H](C)O)nc3cnc4ccsc4c32)CC1 [Example 83, Propyl [(trans-4-{2-[(1R)-1-hydroxyethyl]-1H-imidazo[4,5-d]thieno[3,2-b]pyridin-1-yl}cyclohexyl)methyl]carbamate]",>10
